Laboratory results published in US20240025883A1, “PYRIMIDIN-2-YL SULFONAMIDE DERIVATIVES” (Hoffmann-La Roche Inc., priority 2021, published 2024).

What follows are compounds tested against human GPR17 short isoform (Homo sapiens (Human), UniProt Q13304) (assay: GPR17 cAMP assay (hGPR17 cAMP, antagonist mode against EC80 of MDL29,951)). Conditions: CHO-K1 cells stably expressing human GPR17 short isoform; EC80 of agonist MDL29,951; forskolin 15 μM.
Format: cell-based
Method: GPR17 cAMP Assay Protocol:
CHO-K1 cells stably expressing vector containing untagged human GPR17 short isoform (Roche) were cultured at 37° C./5% CO2 in DMEM (Dulbecco's Modified Eagle Medium):F-12 (1:1) supplemented with 10% foetal bovine serum and 400 μg/ml Geneticin.
Changes in intracellular cyclic adenosine monophosphate (cAMP) levels were quantified using the Nano-TRF Detection Assay kit (Roche Diagnostics, Cat. No. 05214386001). This assay allows for direct cAMP quantification in a homogeneous solution, cAMP is detected based on time-resolved fluorescence energy transfer (TR-FRET) and competitive binding of ruthenylated cAMP and endogenous cAMP to an anti-cAMP monoclonal antibody labeled with AlexaFluor-700. The Ruthenium complex serves as the FRET donor and transfers energy to AlexaFluor-700. The FRET signal is inversely proportional to the cAMP concentration.
CHO-GPR17S cells were detached with Accutase and resuspended in assay buffer consisting of Hank's Balanced Salt Solution (HBSS), 10 mM HEPES (4-(2-hydroxyethyl) piperazine-1-ethanesulfonic acid solution) and 0.1% bovine serum albumin (pH 7.4). The cells were seeded in black 384-well plates (Corning) at a density of 10,000 cells/20 μl assay buffer until the addition of compounds.
Test antagonist compounds were serially diluted in dimethyl sulfoxide (DMSO) and spotted in 384-well plates. The compounds were then diluted in HBSS buffer supplemented with an EC80 concentration of MDL29,951 (3-(2-Carboxy-4,6-dichloroindol-3-yl)propionic acid) (GPR17 agonist) plus 3-Isobutyl-1-methylxanthine (IBMX) (0.5 mM final concentration) and added to the cells at room temperature. Forskolin (15 μM final concentration) was added 5 minutes after the test compounds and the cells were incubated at room temperature for 30 minutes. The assay was stopped by adding cAMP detection mix (containing detergents for cell lysis) for 90 minutes at room temperature.
Cellular cAMP was measured using a Paradigm reader (Molecular Devices). The raw data was used to calculate the FRET signal based on the assay's P-factor as per cAMP kit instructions. The data was normalized to the maximal activity of a reference antagonist and dose response curves were fitted to the percent activity of the test compounds using a sigmoidal dose response model (Genedata Screener).

Chain of human GPR17 short isoform (Q13304 29-367): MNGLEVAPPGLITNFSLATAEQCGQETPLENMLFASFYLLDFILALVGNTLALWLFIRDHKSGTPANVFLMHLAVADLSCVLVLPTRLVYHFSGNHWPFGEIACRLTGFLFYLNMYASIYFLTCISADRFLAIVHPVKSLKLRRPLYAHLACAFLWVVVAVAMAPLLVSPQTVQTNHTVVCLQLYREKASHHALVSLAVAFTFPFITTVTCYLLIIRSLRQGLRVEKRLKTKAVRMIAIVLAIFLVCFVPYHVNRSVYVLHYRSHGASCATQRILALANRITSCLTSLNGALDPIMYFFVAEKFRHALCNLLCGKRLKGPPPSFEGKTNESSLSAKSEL

IC50 [nM] | SMILES
36 | COc1nc(NS(=O)(=O)c2c[nH]c3c(F)c(Cl)ccc23)ncc1OCCF [Example 2, 6-chloro-7-fluoro-N-[5-(2-fluoroethoxy)-4-methoxy-pyrimidin-2-yl]-1H-indole-3-sulfonamide]
50 | COc1nc(NS(=O)(=O)c2c[nH]c3c(Cl)c(Cl)ccc23)ncc1OCCF [Example 3, 6,7-dichloro-N-[5-(2-fluoroethoxy)-4-methoxy-pyrimidin-2-yl]-1H-indole-3-sulfonamide]
34 | COc1nc(NS(=O)(=O)c2c[nH]c3c(C(F)F)c(Cl)ccc23)ncc1OCCF [Example 4, 6-chloro-7-(difluoromethyl)-N-[5-(2-fluoroethoxy)-4-methoxy-pyrimidin-2-yl]-1H-indole-3-sulfonamide]
103 | COc1nc(NS(=O)(=O)c2c[nH]c3c(OC4CC4)c(Cl)ccc23)ncc1OCCF [Example 5, 6-chloro-7-(cyclopropoxy)-N-[5-(2-fluoroethoxy)-4-methoxy-pyrimidin-2-yl]-1H-indole-3-sulfonamide]
129 | CCOc1cnc(NS(=O)(=O)c2c[nH]c3cc(Cl)ccc23)nc1OC [Example 6, 6-chloro-N-(5-ethoxy-4-methoxy-pyrimidin-2-yl)-1H-indole-3-sulfonamide]
403 | COCCOc1cnc(NS(=O)(=O)c2c[nH]c3cc(Cl)ccc23)nc1OC [Example 7, 6-chloro-N-[4-methoxy-5-(2-methoxyethoxy)pyrimidin-2-yl]-1H-indole-3-sulfonamide]
182 | COc1nc(NS(=O)(=O)c2c[nH]c3cc(Cl)ccc23)ncc1OC(F)F [Example 8, 6-chloro-N-[5-(difluoromethoxy)-4-methoxy-pyrimidin-2-yl]-1H-indole-3-sulfonamide]
218 | COc1nc(NS(=O)(=O)c2c[nH]c3cc(Cl)ccc23)ncc1OCCOC(F)F [Example 9, 6-chloro-N-[5-[2-(difluoromethoxy)ethoxy]-4-methoxy-pyrimidin-2-yl]-1H-indole-3-sulfonamide]
96 | COc1nc(NS(=O)(=O)c2c[nH]c3nc(Cl)ccc23)ncc1OCCF [Example 10, 6-chloro-N-[5-(2-fluoroethoxy)-4-methoxy-pyrimidin-2-yl]-1H-pyrrolo[2,3-b]pyridine-3-sulfonamide]
91 | COc1nc(NS(=O)(=O)c2c[nH]c3cc(Cl)ccc23)nc(OC)c1Cl [Example 11, 6-chloro-N-(5-chloro-4,6-dimethoxy-pyrimidin-2-yl)-1H-indole-3-sulfonamide]
20 | COc1nc(NS(=O)(=O)c2c[nH]c3cc(Cl)ccc23)nc(OC)c1Br [Example 12, N-(5-bromo-4,6-dimethoxy-pyrimidin-2-yl)-6-chloro-1H-indole-3-sulfonamide]
236 | CCOc1nc(NS(=O)(=O)c2c[nH]c3cc(Cl)ccc23)nc(OC)c1Br [Example 13, N-(5-bromo-4-ethoxy-6-methoxy-pyrimidin-2-yl)-6-chloro-1H-indole-3-sulfonamide]
215 | COc1nc(NS(=O)(=O)c2c[nH]c3cc(Cl)ccc23)nc(OCCF)c1Br [Example 14, N-[5-bromo-4-(2-fluoroethoxy)-6-methoxy-pyrimidin-2-yl]-6-chloro-1H-indole-3-sulfonamide]
132 | CCc1cnc(NS(=O)(=O)c2c[nH]c3cc(Cl)ccc23)nc1OC [Example 15, 6-chloro-N-(5-ethyl-4-methoxy-pyrimidin-2-yl)-1H-indole-3-sulfonamide]
23 | CCc1c(OC)nc(NS(=O)(=O)c2c[nH]c3cc(Cl)ccc23)nc1OC [Example 16, 6-chloro-N-(5-ethyl-4,6-dimethoxy-pyrimidin-2-yl)-1H-indole-3-sulfonamide]
19 | COc1nc(NS(=O)(=O)c2c[nH]c3cc(Cl)ccc23)nc(OC)c1C [Example 17, 6-chloro-N-(4,6-dimethoxy-5-methyl-pyrimidin-2-yl)-1H-indole-3-sulfonamide]
83 | COc1nc(NS(=O)(=O)c2c[nH]c3cc(Cl)ccc23)nc(OC(F)F)c1Br [Example 18, N-[5-bromo-4-(difluoromethoxy)-6-methoxy-pyrimidin-2-yl]-6-chloro-1H-indole-3-sulfonamide]
49 | COc1nc(NS(=O)(=O)c2c[nH]c3cc(Cl)ccc23)nc(C2CC2)c1OCC(F)F [Example 19, 6-chloro-N-[4-cyclopropyl-5-(2,2-difluoroethoxy)-6-methoxy-pyrimidin-2-yl]-1H-indole-3-sulfonamide]

IC50 [nM] | SMILES
399 | COc1nc(NS(=O)(=O)c2c[nH]c3cc(Cl)ccc23)nc(C)c1OCC(F)F [Example 20, 6-chloro-N-[5-(2,2-difluoroethoxy)-4-methoxy-6-methyl-pyrimidin-2-yl]-1H-indole-3-sulfonamide]
12 | COc1nc(NS(=O)(=O)c2c[nH]c3cc(Cl)ccc23)ncc1CCCF [Example 21, 6-chloro-N-[5-(3-fluoropropyl)-4-methoxy-pyrimidin-2-yl]-1H-indole-3-sulfonamide]
256 | COc1nc(NS(=O)(=O)c2c[nH]c3cc(Cl)ccc23)ncc1C#N [Example 23, 6-chloro-N-(5-cyano-4-methoxy-pyrimidin-2-yl)-1H-indole-3-sulfonamide]
51 | COc1nc(NS(=O)(=O)c2csc3cc(Cl)ccc23)ncc1OCCF [Example 24, 6-chloro-n-[5-(2-fluoroethoxy)-4-methoxy-pyrimidin-2-yl]benzothiophene-3-sulfonamide]
23 | COc1nc(NS(=O)(=O)c2c[nH]c3cc(Br)ccc23)ncc1OCCF [Example 25, 6-bromo-N-[5-(2-fluoroethoxy)-4-methoxy-pyrimidin-2-yl]-1H-indole-3-sulfonamide]
809 | COc1nc(NS(=O)(=O)c2c[nH]c3cc(Cl)ccc23)ncc1C [Example 26, 6-chloro-N-(4-methoxy-5-methyl-pyrimidin-2-yl)-1H-indole-3-sulfonamide]
83 | COc1nc(NS(=O)(=O)c2csc3nc(Cl)ccc23)ncc1OCCF [Example 27, 6-chloro-N-[5-(2-fluoroethoxy)-4-methoxy-pyrimidin-2-yl]thieno[2,3-b]pyridine-3-sulfonamide]
653 | COc1nc(NS(=O)(=O)c2c[nH]c3cc(Cl)ccc23)ncc1C1CC1 [Example 28, 6-chloro-n-(5-cyclopropyl-4-methoxy-pyrimidin-2-yl)-1h-indole-3-sulfonamide]
80 | CC#Cc1cnc(NS(=O)(=O)c2c[nH]c3cc(Cl)ccc23)nc1OC [Example 29, 6-chloro-n-(4-methoxy-5-prop-1-ynyl-pyrimidin-2-yl)-1h-indole-3-sulfonamide]
43 | COc1nc(NS(=O)(=O)c2c[nH]c3nc(Br)ccc23)nc(OC)c1Br [Example 30, 6-bromo-n-(5-bromo-4,6-dimethoxy-pyrimidin-2-yl)-1h-pyrrolo[2,3-b]pyridine-3-sulfonamide]
76 | COc1nc(NS(=O)(=O)c2c[nH]c3nc(Cl)ccc23)nc(OC)c1Br [Example 31, N-(5-bromo-4,6-dimethoxy-pyrimidin-2-yl)-6-chloro-1h-pyrrolo[2,3-b]pyridine-3-sulfonamide]
232 | COc1nc(NS(=O)(=O)c2c[nH]c3cc(Cl)ccc23)nc(OC)c1C#N [Example 32, 6-chloro-N-(5-cyano-4,6-dimethoxy-pyrimidin-2-yl)-1H-indole-3-sulfonamide]
569 | Cc1nc(NS(=O)(=O)c2c[nH]c3cc(Cl)ccc23)nc(C)c1Br [Example 33, N-(5-bromo-4,6-dimethyl-pyrimidin-2-yl)-6-chloro-1H-indole-3-sulfonamide]
924 | O=S(=O)(Nc1ncc(OCC(F)F)cn1)c1c[nH]c2cc(Cl)ccc12 [Example 34, 6-chloro-N-[5-(2,2-difluoroethoxy)pyrimidin-2-yl]-1H-indole-3-sulfonamide]
479 | CSc1nc(NS(=O)(=O)c2c[nH]c3cc(Cl)ccc23)ncc1OCC(F)F [Example 35, 6-chloro-N-[5-(2,2-difluoroethoxy)-4-methylsulfanyl-pyrimidin-2-yl]-1H-indole-3-sulfonamide]
119 | COc1nc(NS(=O)(=O)c2c[nH]c3cc(Cl)ccc23)ncc1SC [Example 36, 6-chloro-N-(4-methoxy-5-methylsulfanyl-pyrimidin-2-yl)-1H-indole-3-sulfonamide]
68 | COc1nc(NS(=O)(=O)c2c[nH]c3cc(Cl)ccc23)ncc1SC(F)F [Example 37, 6-chloro-N-[5-(difluoromethylthio)-4-methoxy-pyrimidin-2-yl]-1H-indole-3-sulfonamide]
2680 | COc1nc(NS(=O)(=O)c2c[nH]c3cc(Cl)ccc23)ncc1OC1CC1 [Example 38, 6-chloro-N-[5-(cyclopropoxy)-4-methoxy-pyrimidin-2-yl]-1H-indole-3-sulfonamide]
